tested on: chick embryo chorioallantoic membrane (CAM); experiment: chick embryo chorioallantoic membrane (CAM) angiogenesis study; type: in vivo, chick (Leghorn white breed); settings: nitrocellulose filter disk soaked with 20 μl of 6 mg/ml in PBS placed on CAM on 7th day; observed on 12th day; estimated visually; FIG. 1
Description: This study was conducted on chick embryos according to the method described by Ribatti D. et al., Nat. Protoc., 2006, 1(1), 85-91 with some minor modifications.
This study was conducted on chick embryo chorioallantoic membrane (CAM). The CAM is an extraembryonic membrane formed on the 4th day of incubation by fusion of the chorion and allantois. It enables gas exchanges to take place between the chick embryo and the extraembryonic environment until birth. This CAM is composed of a very thick capillary network which forms a continuous surface in direct contact with the shell. Rapid capillary proliferation of this membrane continues until the 11th day; the mitotic index then decreases rapidly and the vascular system reaches its final arrangement on the 18th day, just before birth (hatching on the 21st day).
Fertilized chicken eggs of the Leghorn white breed were placed in an incubator at the start of embryogenesis, where they were kept under constant humidity at a temperature of 38° C. On the second day of incubation, a window was made in the shell after removing 2 to 3 ml of albumin in order to detach the CAM from the shell. The window was then sealed with adhesive tape and the egg was put back in the incubator to continue its development until the day of the experiment. On the 7th day, pieces of inert synthetic polymers (nitrocellulose filter disks 0.4 cm in diameter) were soaked with 20 μl of each of the solutions of the test compounds (6 mg/ml in PBS) and were then positioned on the CAM. The effect of the test substances on angiogenesis was then observed on the 12th day and the quantitative evaluation of the pro- or antiangiogenic response was estimated visually.

Row | Compound | effect on vascularization of the chick embryos (pro- or antiangiogenic response)
1 | CO[C@H]1O[C@H](CCN)[C@@H](O)[C@H](O)[C@@H]1O [Compound I-1, Methyl 7-amino-6,7-dideoxy-α-D-manno-heptopyranoside] | activating effect on vascularization
2 | methyl 6,7-dideoxy-7-sulfonato-D-manno-heptopyranoside [DM2] | inhibitory effect on vascularization
3 | CO[C@H]1O[C@H](CN=[N+]=[N-])[C@@H](O)[C@H](O)[C@@H]1O [Compound I-2, Methyl 6-Azido-6-Deoxy-α-D-Mannopyranoside] | activating effect on vascularization
4 | COC1O[C@H](CC(=O)O)[C@@H](O)[C@H](O)[C@@H]1O (stereo partly drawn) [DM4, (methyl 6,7-dideoxy-D-manno-heptopyranoside)uronic acid] | inhibitory effect on vascularization
5 | COC1O[C@H](COP(=O)([O-])[O-])[C@@H](O)[C@H](O)[C@@H]1O.[Na+].[Na+] (stereo partly drawn) [DM1, methyl(disodium)-6-phosphate-D-manno-pyranoside] | inhibitory effect on vascularization
6 | COC1O[C@H](CCP(=O)(O)O)[C@@H](O)[C@H](O)[C@@H]1O (stereo partly drawn) [Compound I-4, methyl 7-phosphonato-6,7-dideoxy-D-manno-heptopyranoside] | activating effect on vascularization
7 | COC1O[C@H](CC(C(=O)O)C(=O)O)[C@@H](O)[C@H](O)[C@@H]1O (stereo partly drawn) [DM3, methyl 6-deoxy-6-malonate-D-mannopyranoside] | inhibitory effect on vascularization

Reference: patent US8551960B2, “Uses of D-mannopyranose derivatives activating angiogenesis” (Centre National de la Recherche Scientifique, priority 2008, dated 2013)
